Assay results reported in patent US20240293430A1, “WITHAFERIN A AND IMMUNE CHECKPOINT BLOCKER COMBINATION THERAPIES” (University of South Florida, priority 2023, published 2024).

Columns and labels:
[1] = test system: NSCLC cell lines (LLC, H1650 and A549); assay: Cell Titer-Glo cell viability assay; format: cell-based, mouse (LLC), human (H1650; conditions: 48 h, range over LLC
Description: FIGS. 1A-lE depict that WFA induces ER stress-mediated apoptosis in NSCLC cell lines. (FIG. 1A) NSCLC cells were plated on 96-well plates and treated with different concentrations of WFA ([…]) in triplicates. Forty-eight hours post-treatment, cell viability was determined using Cell Titer-Glo assay. Luminescence values were normalized to control untreated cells and IC50 values are represented as the mean of two independent experiments ±SEM. (FIG. 1B) NSCLC cells were treated WFA for forty-eight hours, then collected to measure apoptotic cell death using Annexin V assay in LLC cells, H1650 cells, and A549 cells. Percentages of early (annexin*DAPI-) and late (annexin*DAPI+) apoptotic cells are represented as means of two separate experiments ±SEM and statistical significance was calculated using one-way ANOVA and a Fisher LSD post hoc test was used to compare the mean of each group to that of the control group. […] The quantification of western blot band density was performed using Image J software v.1.54d and normalized to housekeeping control protein in LLC cells (0-actin). […]
LLC, H1650, or A549 was plated in 96-well plates and treated with WFA (serialdilutions 10-0.078 μM) in triplicates. […] Forty-eight hours after treatment, cell viability was determined using Cell Titer-Glo assay (Promega, Madison, WI, USA) according to the manufacturer's instructions. […]

[2] = test system: secreted HMGB-1 from LLC cells; assay: HMGB-1 ELISA of supernatants; format: cell-based, mouse; conditions: 0.6 μM WFA, 48 h
Description: Cells were treated with WFA for 48 h then collected using Accutase cell detachment solution. […] (FIG. 2E) Bone marrow-derived DC were co-cultured with WFA-pretreated LLC cells (24 h) in a ratio 5:1 of DC:LLC cells for 24 h.
LLC cells were plated and treated with WFA or doxorubicin (ICD inducer) for 48 h. Supernatants were collected and centrifuged at 1000 RPM for 10 min. The levels of secreted HMGB-1 were measured using the HMGB-1 detection ELISA kit (Chondrex, 6010, Woodinville, WA, USA) according to the manufacturer's protocol.

[3] = test system: PD-L1 expression in MC38, HCT116 colon cancer cell lines; assay: PD-L1 expression in colon cancer cell lines; format: cell-based, mouse (MC38), human (HCT116)
Description: FIGS. 8A-8G depict that WFA induced ICD and PD-L1 upregulation in colorectal cancer cell lines. WFA increased the levels of ecto-CRT in the murine colorectal cancer cell line (FIG. 8A) MC-38 and human cell line (FIG. 8B) HCT-116. WFA increased the expression of PD-L1 in both (FIG. 8C) MC-38 and (FIG. 8D) HCT-116 cells. […] H1650 cells (at a higher density) were treated with a higher concentration of WFA (2 and 4 μM) to facilitate cell collection and protein isolation. The band density was quantified using Image J software and normalized to the housekeeping protein. The fold change from untreated control was averaged from two independent experiments ±SEM and one-way ANOVA was used to calculate the statistical significance. A Fisher LSD post hoc test was performed to compare the treatments to the control in (FIG. 8E) LLC, (FIG. 8F) H1650, (FIG. 8G) A549 cells. * p<0.05, ** p<0.01, *** p<0.001, **** p<0.0001.
In vitro WFA-treated or control cells were collected using Accutase cell detachment solution and stained with FACS-diluted (PBS, 10% FBS, 2 mMEDTA) pre-titrated fluorophore conjugated or primary unconjugated antibody solutions (Table 1) for 30 min on ice in the dark. […]

[4] = test system: ROS levels in NSCLC cell lines; assay: ROS levels with ROS indicator CM-H2DCFDA; format: cell-based, mouse (LLC), human (H1650; conditions: 24 h; WFA 0.6 μM (LLC, H1650), 4 μM (A549); NAC 5 mM
[5] = test system: PD-L1 in NRF-2 knockdown LLC or H1650 cells; assay: NRF-2 siRNA knockdown then WFA, PD-L1 by flow cytometry; format: cell-based, mouse (LLC), human (H1650); conditions: WFA 24 h after siRNA, similar to scramble controls
[6] = test system: bone marrow-derived DCs co-cultured with WFA-pretreated LLC; conditions: DC:LLC 5:1, 24 h co-culture, vs untreated LLC
Description: Cells were treated with WFA for 48 h then collected using Accutase cell detachment solution. […] (FIG. 2E) Bone marrow-derived DC were co-cultured with WFA-pretreated LLC cells (24 h) in a ratio 5:1 of DC:LLC cells for 24 h. DC activation markers (CD80, CD86, and MHC-II) were examined by flow cytometry. The means of at least 2 independent experiments ±SEM is represented, and one-way ANOVA was used to calculate statistical significance where * denotes p<0.05, ** denote p<0.01, *** denote p<0.001, and **** denote p<0.0001.
Hierarchical gating was used to identify the total cell population followed by single live cells the CD11C+DC. Out of the CD11C population, the expression of DC cell activation markers was determined based on the fluorescence minus one (FMO) controls.
Myeloid progenitor cells were isolated from the femurs of C57BL/6 mice as described previously [37]. The isolated cells were cultured in RMPI media supplemented with GMCSF and refed as necessary. On day 8, the differentiated DCs (loosely attached) were collected, counted, and added to WFA-pretreated LLCs or untreated control LLCs at a ratio of 5:1 of DC: LLC cells. […] Then the samples were acquired using a BD LSR II flow cytometer and the data were analyzed using FlowJo 8.7 software (BD, Franklin Lakes, NJ, USA).

IC50 [1]: 500 to 1500 nM
SMILES: CC1=C(CO)C(=O)O[C@@H]([C@@H](C)[C@H]2CC[C@H]3[C@@H]4C[C@H]5O[C@]56[C@@H](O)C=CC(=O)[C@]6(C)[C@H]4CC[C@]23C)C1 [WFA, Withaferin A]
HMGB-1 levels secreted in the supernatants [2]: increased
PD-L1 expression [3]: increased
ROS levels [4]: increased
PD-L1 in NRF-2 knockdown cells [5]: still upregulated
DC activation markers CD80, CD86, MHC-II [6]: higher levels
